The results in this text go back to patent US8575342B2, “HIV inhibiting 5-heterocyclyl pyrimidines” (Tibotech Pharmaceuticals Ltd., priority 2004, dated 2013).

Assay [1] concerns wild type HIV-LAI strain (IIIB). The experiment in a line: cellular antiviral assay, strain IIIB. The following applies: for EC50: read-out: pEC50 IIIB (converted). It is filed as cell-based. An excerpt: Strain IIIB is wild type HIV-LAI strain
Assay [2] concerns HIV strain C, mutation L100I in HIV reverse transcriptase. The experiment in a line: cellular antiviral assay, strain C. It is filed as cell-based. The settings on record: for pEC50 C: strain C, L100I; for EC50: Human immunodeficiency virus 1, read-out: pEC50 C (converted). The text has this:
Strain C contains mutation L100I in HIV reverse transcriptase, […]

Assay [3] concerns HIV strain B, mutation K103N in HIV reverse transcriptase. Briefly: cellular antiviral assay, strain B. It is filed as cell-based. The following applies: for EC50: Human immunodeficiency virus 1, read-out: pEC50 B (converted). The text has this: Strain B contains mutation K103N in HIV reverse transcriptase, […]
Assay [4] relates to HIV strain E, mutations L100I and K103N in HIV reverse transcriptase. The experiment in a line: cellular antiviral assay, strain E. It is filed as cell-based. The following applies: for pEC50 E: strain E, L100I and K103N; for EC50: Human immunodeficiency virus 1, read-out: pEC50 E (converted). An excerpt:
Strain E contains mutations L100I and K103N in HIV reverse transcriptase, […]

For assay [5], the system named is HIV strain D, mutation Y188L in HIV reverse transcriptase. Briefly: cellular antiviral assay, strain D. The following applies: for pEC50 D: strain D, Y188L; for EC50: Human immunodeficiency virus 1, read-out: pEC50 D (converted). Type of assay: cell-based. An excerpt:
Strain D contains mutation Y188L in HIV reverse transcriptase, […]

A short description of assay [6]: cellular antiviral assay, strain G. Type of assay: cell-based, HIV. The settings on record: Human immunodeficiency virus 1, read-out: pEC50 G (converted).
[7] abbreviates: Human immunodeficiency virus 1, IIIB.

Read-outs that look alike come from different tables or passages of the source.

Take `Cc1cc(C=CC#N)cc(C)c1Nc1nc(Nc2ccc(C#N)cc2)ncc1-c1nc(-c2ccccc2)no1` (mixture of isomers) [Compound 13]: the “pEC50 IIIB” value in assay [1] (strain IIIB, wild type HIV-LAI) was 7.8. Also, in assay [2], the “pEC50 C” value was found to be 7.8. For the same compound, in assay [3] (strain B, K103N), the “pEC50 B” value is recorded as 7.7. Further, the “pEC50 E” value in assay [4] came to 7. For the same compound, the “pEC50 D” value in assay [5] is given as 7.
Turning to `Cc1cc(/C=C/C#N)cc(C)c1Nc1nc(Nc2ccc(C#N)cc2)ncc1-n1cccc1` [Compound 1], the EC50 was 1 nM in assay [1] (setting [7]); 1 nM in assay [2]; 0.794 nM in assay [3]; 1580 nM in assay [6]; 3.98 nM in assay [4]; 6.31 nM in assay [5].
Take `Cc1cc(/C=C/C#N)cc(C)c1Nc1nc(Nc2ccc(C#N)cc2)ncc1-c1cccnc1` [Compound 2]: the EC50 in assay [1] (setting [7]) was 0.631 nM; in assay [2], 2 nM; in assay [3], 0.631 nM; in assay [6], 7940 nM; in assay [4], 12.6 nM; in assay [5] it was 3.98 nM.
Take `Cc1cc(/C=C/C#N)cc(C)c1Nc1nc(Nc2ccc(C#N)cc2)ncc1-c1ccco1` [Compound 3]: the EC50 in assay [1] (Human immunodeficiency virus 1, strain IIIB, wild type HIV-LAI) was 0.631 nM; in assay [2] it was 0.631 nM; in assay [3] it was 0.794 nM; in assay [6], 631 nM; in assay [4] it was 3.16 nM; in assay [5], 2.51 nM.
As to `N#C/C=C/c1cc(F)c(Nc2nc(Nc3ccc(C#N)cc3)ncc2-n2cccc2)c(Cl)c1` [Compound 4], the EC50 in assay [1] (setting [7]) is 1 nM; in assay [2], 0.794 nM; in assay [3], 1 nM; in assay [6], 2510 nM; in assay [4], 3.16 nM; in assay [5], 12.6 nM.
With `Cc1cc(/C=C/C#N)cc(C)c1Nc1nc(Nc2ccc(C#N)cc2)ncc1-c1nc(-c2ccco2)no1` [Compound 15], in assay [1] (strain IIIB, wild type HIV-LAI), the “pEC50 IIIB” value was determined as 7.6. For the same compound, the “pEC50 C” value in assay [2] is given as 6.7. Also, in assay [4], the “pEC50 E” value is 4.6. Besides, the “pEC50 D” value in assay [5] worked out at 6.2.
Turning to `Cc1noc(-c2cnc(Nc3ccc(C#N)cc3)nc2Nc2c(C)cc(/C=C/C#N)cc2C)n1` [Compound 16], in assay [1] (strain IIIB, wild type HIV-LAI), the “pEC50 IIIB” value is on record as 8.3. For the same compound, the “pEC50 C” value in assay [2] is recorded as 8.4. For the same compound, in assay [4], the “pEC50 E” value was found to be 7.7. Further, the “pEC50 D” value in assay [5] is 7.8.
In the same order, the values of `Cc1cc(/C=C/C#N)cc(C)c1Nc1nc(Nc2ccc(C#N)cc2)ncc1-c1nc(-c2cccs2)no1` [Compound 17] are 7.0, 6.0, 5.0 and 5.7.
On to `Cc1cc(/C=C/C#N)cc(C)c1Nc1nc(Nc2ccc(C#N)cc2)ncc1-c1ncccc1N` [Compound 20], for which, in assay [1] (strain IIIB, wild type HIV-LAI), the “pEC50 IIIB” value is recorded as 8.7. For the same compound, the “pEC50 E” value in assay [4] stood at 7.1.
